Reference: US20230077584A1, “METHODS AND COMPOSITIONS FOR MODULATING ENTEROENDOCRINE CELLS” (Flagship Pioneering Innovations VI, LLC, priority 2021, published 2023)

Columns and labels:
[1] = system: mouse intestinal organoids; settings: ENR media supplemented with factor; based on published data (Yin et al); cited from earlier work
[2] = system: mouse intestinal organoids; assay: mouse small intestinal organoid differentiation, lineage markers by Q-PCR; format: cell-based; settings: ENR media, Q-PCR after 5 days of treatment, FIG. 2
From the text: Cryopreserved mouse intestinal organoids derived from small intestine were obtained from Stem Cell Technologies. The organoids were thawed and propagated in Intesticult Growth Medium (Mouse) (purchased from Stem Cell Technologies) following the company's instructions. Briefly, ˜100 organoid fragments/well are embedded in Matrigel domes in 24-well plates and growth media is renewed every 2-3 days. The organoids are passaged every 5-6 days in 1:4 ratio. To assess the potential of the predicted perturbations to induce the enteroendocrine cell lineage during organoid differentiation, we established an in vitro assay to induce the various intestinal lineages (enterocytes, goblet cells, Paneth cells, enteroendocrine cells) based on published data (Yin et al, Nat Methods. 2014 January; 11(1):106-12). Briefly, organoid fragments are embedded in Matrigel and grow in custom-made media in the presence of EGF, Noggin, Rspondin (ENR) supplemented with the indicated factors (Table 4) that are known to induce markers of the various intestinal lineages. The expression of markers and the induction of the various cell lineages was assessed by Q-PCRs after 5 days of treatments (FIG. 2). Further characterization of the organoids will be performed by immunofluorescence staining and flow cytometry. […]

Row | SMILES | Cell lineage (factors known to induce markers of intestinal lineages) [1] | expression of chromogranin A and chromogranin B genes, markers of enteroendocrine cells [2]
1 | C[C@H](NC(=O)Cc1cc(F)cc(F)c1)C(=O)N[C@H](C(=O)OC(C)(C)C)c1ccccc1 [DAPT] | Enteroendocrine Cells, Paneth | induces the expression of chromogranin A and chromogranin B genes
2 | Cc1ccc2nc(NC(=O)CSc3nc4c(c(=O)n3-c3ccccc3)SCC4)sc2c1 [IWP2] | Enterocytes, Enteroendocrine Cells | –
